Data reported in US5736556A, “Tropane-2-aldoxime derivatives as nevro transmitter reuptake inhibitors” (NeuroSearch A/S, priority 1994, dated 1998).
Structures can show the parent of a compound that is named as a salt.

Key:
[1] = target: T1, ^3 H-noradrenaline uptake (noradrenaline transporter) (Rattus norvegicus, UniProt Q63380); assay: In vitro inhibition of ^3 H-noradrenaline (^3 H-NA) uptake in hippocampal synaptosomes; format: biochemical, rat (male Wistar); settings: ^3 H-NA 1 nM, 90 min at 37° C.
T1 construct: Hippocampi from male Wistar rats (150-200 g) are homogenized; from tissue; host or cells: P2 synaptosomes of hippocampus, male Wistar rats
From the text: The compounds of the invention have also been tested for their ability to inhibit reuptake of dopamine(DA) noradrenalin(NA) and serotonin(5-HT) in synaptosomes.
Specific neurotransmitter transporters/uptake sites on nerve terminals presumably function to terminate neuronal signaling by removing the neurotransmitters dopamine, noradrenaline and serotonin, respectively, from the synaptic cleft. The activity of the transporter integral proteins can be measured in vitro by synaptosomal uptake of ^3 H-dopamine, ^3 H-noradrenaline and ^3 H-serotonine, respectively.
In vitro inhibition of ^3 H-noradrenaline (^3 H-NA) uptake in hippocampal synaptosomes
Tissue preparation: Preparations are performed at 0°-4° C. unless otherwise indicated. Hippocampi from male Wistar rats (150-200 g) are homogenized for 5-10 sec in 100 volumes of ice-cold 0.32M sucrose containing 1 mM pargyline using an Ultra-Turrax homogenizer. Monoamine oxidase activity will be inhibited in the presence of pargyline. The homogenate is centrifuged at 1000×g for 10 min. The resulting supernatant is then centrifuged at 27,000×g for 50 min and the supernatant is discarded. The pellet (P2) is resuspended in oxygenated (equilibrated with an atmosphere of 96% O2 : 4% CO2 for at least 30 min) Krebs-Ringer incubation buffer (2000 ml per g of original tissue) at pH 7.2 containing 122 mM NaCl, 0.16 mM EDTA, 4.8 mM KCl, 12.7 mM Na2 HPO4, 3.0 mM NaH2 PO4, 1.2 mM MgSO4, 0.97 mM CaCl2, 10 mM glucose and 1 mM ascorbic acid.
Assay: Aliquots of 4.0 ml tissue suspension are added to 100 μl of test solution and 100 μl of ^3 H-NA (1 nM, final concentration), mixed and incubated for 90 min at 37° C. Non-specific uptake is determined using desipramine (1 μM, final concentration). After incubation the samples are poured directly onto Whatman GF/C glass fibre filters under suction. […] The amount of radioactivity on the filters is determined by conventional liquid scintillation counting. Specific uptake is calculated as the difference between total uptake and non-specific uptake. […]

[2] = test system: immobility time of mice suspended by the tail; assay: Tail Suspension; format: in vivo, mice (female NMRI); settings: Mus musculus, 0.5 h, oral, 30 min before test, dose reducing the immobility to 100 sec
Procedure: A decrease in the immobility time by mice suspended in their tail is seen after systemic administration of central stimulants and by antidepressants (Steru, L., Chermat, R., Thierry, B. & Simon, P. (1985) The tail suspension test: A new method for screening antidepressants in mice. Psychopharmacology 85:367-370.).
Female NMRI mice (20-25 g) habituated to the room (12 hours light/dark) for at least 16 hours and housed 25 per cage are used. The mice are suspended by the tail with adhesive tape to a rod 30 cm above the lab. bench 30 min after an oral administation of vehicle or drug. For the next 6 min the accumulated duration of immobility defined as no movements by the body or extremities (however head movements are not defined as movements) are noted, Six mice per dose are used.
Saline or vehicle treated mice have immobility time scores between 160-180 sec in average. An ED50 -value is calculated by graphical interpolation from at least 3 doses as the dose reducing the immobility to 100 sec.

dopamine transporter = dopamine transporter (Mus musculus, UniProt Q61327); assay: In vivo inhibition of ^3 H-WIN 35428 binding (striatum); set-up: from tissue; host or cells: striatum of living female NMRI mice; species or system mice (female NMRI); settings: ip, mice, inhibition of specific ^3 H-WIN 35428 binding in striatum
Procedure: All test substances used are solutions or suspensions prepared in 10% TWEEN 80. Groups of three female NMRI mice (25 g) are injected i.p. with the test substance. […] Tissues are weighed and dissolved for 36 h with 1 ml 2% sodium-laurylsulfat. The solubilized tissue is then added 2 ml of scintillation cocktail, and the amount of radioactivity per mg of tissue is counted by conventional liquid scintillation counting. Groups of untreated mice serves as controls.
The ED50 value is determined from dose response curves.
ED50 =(administered dose, mg/kg)×1/(C0 /Cx -1), where C0 is specific binding in controls and Cx is the specific binding in mice treated with test substance.

T1 sequence (Q63380 1-617): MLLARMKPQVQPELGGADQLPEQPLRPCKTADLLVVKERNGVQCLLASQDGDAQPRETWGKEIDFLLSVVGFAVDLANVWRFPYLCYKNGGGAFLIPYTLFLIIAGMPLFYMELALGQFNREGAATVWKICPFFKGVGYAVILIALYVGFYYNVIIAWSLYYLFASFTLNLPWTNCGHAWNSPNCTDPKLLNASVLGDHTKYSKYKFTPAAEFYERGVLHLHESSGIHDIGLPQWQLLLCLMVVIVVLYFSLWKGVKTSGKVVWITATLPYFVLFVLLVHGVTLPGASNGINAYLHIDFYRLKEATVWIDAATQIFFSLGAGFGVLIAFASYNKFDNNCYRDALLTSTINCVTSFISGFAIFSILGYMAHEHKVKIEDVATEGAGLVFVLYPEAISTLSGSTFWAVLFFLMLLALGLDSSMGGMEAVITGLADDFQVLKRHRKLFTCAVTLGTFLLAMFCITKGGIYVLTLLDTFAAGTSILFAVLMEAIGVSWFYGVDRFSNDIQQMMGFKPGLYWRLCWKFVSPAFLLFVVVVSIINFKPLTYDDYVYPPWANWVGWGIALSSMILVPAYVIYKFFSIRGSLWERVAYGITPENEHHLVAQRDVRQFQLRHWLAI
Sequence of dopamine transporter (Q61327 whole entry): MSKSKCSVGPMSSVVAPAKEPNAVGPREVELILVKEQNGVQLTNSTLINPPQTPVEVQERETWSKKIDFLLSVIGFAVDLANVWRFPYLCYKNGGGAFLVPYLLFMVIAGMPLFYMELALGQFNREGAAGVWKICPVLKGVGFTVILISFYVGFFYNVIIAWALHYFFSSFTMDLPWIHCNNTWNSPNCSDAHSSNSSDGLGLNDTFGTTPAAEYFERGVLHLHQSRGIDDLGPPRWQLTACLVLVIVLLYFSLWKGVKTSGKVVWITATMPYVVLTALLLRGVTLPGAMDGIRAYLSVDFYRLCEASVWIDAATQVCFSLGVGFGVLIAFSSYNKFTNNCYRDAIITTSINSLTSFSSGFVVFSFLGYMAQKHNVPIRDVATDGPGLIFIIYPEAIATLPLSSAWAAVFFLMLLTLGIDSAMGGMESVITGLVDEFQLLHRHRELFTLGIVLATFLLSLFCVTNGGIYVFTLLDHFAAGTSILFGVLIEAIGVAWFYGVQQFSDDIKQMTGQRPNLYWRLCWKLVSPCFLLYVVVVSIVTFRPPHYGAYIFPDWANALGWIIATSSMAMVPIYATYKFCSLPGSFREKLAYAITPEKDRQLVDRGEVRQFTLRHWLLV

Row | SMILES | IC50 [1] [nM] | ED50 [2] [mg/kg] | ED50 (dopamine transporter) [mg/kg]
1 | CON=C[C@@H]1[C@@H](c2ccc(Cl)c(Cl)c2)C[C@@H]2CC[C@H]1N2C [(1R,2R,3S)-3-(3,4-dichlorophenyl)-tropane-2-O-methyl-aldoxime, H2 SO4] | 1.3 | 0.1 | 0.9
2 | CON=C[C@@H]1[C@@H](c2ccc(Cl)c(Cl)c2)C[C@@H]2CC[C@H]1N2 [(1R,2R,3S)-N-Normethyl-3-(3,4-dichlorophenyl)tropane-2-O-methyl-aldoxime, hydrochloride] | 1.3 | 0.95 | 1.4
